Test results: US5298523A, “Method for treating transplant patients using mycalamide compounds” (priority 1992, dated 1994)
≈ marks a conversion by molar mass, not a printed value.

Columns and labels:
[1] = Lymphocyte viability assay (LCV, MTT) on human PBL; format: cell-based; conditions: for viability: human MLR, MTT
Experimental: Preparation of human peripheral blood leukocyte (PBL) suspensions. Human peripheral blood suspensions were prepared from Leukotrap blood filters as follows: Leukotrap filters containing processed leukocytes from random, unrelated blood donors were obtained from the Indian River Blood Bank (Vero Beach, Fla.). Buffy-coat blood cell suspensions were recovered by reverse-flow phosphate-buffered saline purging and centrifugation for 15 minutes at 475× g. Buffy coats were removed, and 5 ml of the suspension was layered onto 5 ml of Histopaque gradient material. The Histopaque gradients were centrifuged at 475× g for 30 minutes. Lymphocytes were removed from the Histopaque-medium interface, and washed twice with 10 ml of PBS (Dulbecco's phosphate-buffered saline without CaCl2 and MgCl2.6H2 O). The final cell pellet was resuspended in TCM, and the cell concentration adjusted to 2×10^6 cells/ml.
Determination of mycalamide A toxicity. The toxicity of mycalamide A on murine splenocytes and human PBL was determined using a colorimetric assay, based on the ability of viable cells to convert the colorless tetrazolium salt, 3-(4,5-dimethylthiazol-2yl)-2,5-diphenyl tetrazolium bromide (MTT) to a colored formazan product and trypan blue exclusion. For the colorimetric assay, a volume of 0.075 ml of an MTT solution (550 μg/ml of MTT in TCM) was added to test and control wells containing one of the populations of splenocytes or test wells and incubated for 5-6 hours following the initial incubation period. Microtiter plates were centrifuged at 100× g, supernatants carefully removed, and a volume of 0.20 ml of isopropyl alcohol was added to each well to dissolve the formazan crystals. The absorbance at 570 nm was determined for each well using an ELISA plate reader. […] As an additional parameter of toxicity, wells containing cultured lymphocytes with various dilutions of mycalamide A were examined with trypan blue, and the percentage of dye-excluding (viable) cells was determined.

[2] = test system: murine CD4^+ T cells; test: Activation of CD4+ T cells by anti-CD3 mAb/mB7; format: cell-based, murine (BALB/c)
Experimental: (A) Costimulation of T cells with anti-CD3 mAb and mB7. […] (B) Costimulation of T cells with mB7 and PMA. […] All cultures were incubated for 48 hours and pulsed with 1 μCi [ ^3 H] thymidine/well for the last 6 hours of the incubation period to assay for T cell proliferation.
(§1) (A) Costimulation of T cells with anti-CD3 mAb and mB7. 2×10^5 purified BALB/c CD4^+ T lymphocytes were stimulated with the indicated concentrations of anti-CD3 mAb in the presence of medium (.largecircle.), 2×10^4 paraformaldehyde-fixed CHO-mB7 cells (.quadrature.), or 2×10^4 paraformaldehyde-fixed CHO-mB7 cells in the presence of 0.1 nM FK506 (.gradient.), 1 nM FK506 (Δ), or 10 nM FK506 ( ). (B) Costimulation of T cells with mB7 and PMA. 2×10^5 purified BALB/c CD4^+ T lymphocytes were stimulated with the indicated concentrations of PMA and either medium (.largecircle.), 2×10^4 paraformaldehyde-fixed CHO-mB7 cells (.quadrature.), or paraformaldehyde-fixed CHO-mB7 cells in the presence of 0.1 nM FK506 (.gradient.), 1 nM FK506 (Δ), or 10 nM FK506 ( ). All cultures were incubated for 48 hours and pulsed with 1 μCi [^3 H] thymidine/well for the last 6 hours of the incubation period to assay for T cell proliferation.
as §1, with “pM mycalamide A” for “nM FK506”
mB7-mediated activation of murine CD4^+ T cells. Mouse T cells were purified as follows: splenocytes were depleted of red blood cells by treatment with Tris-NH4 Cl. T cells were enriched by nylon wool fractionation. CD4^+ T cells from BALB/c mice were purified by two-fold treatment with a mixture of anti-MHC Class II and anti-CD8 monoclonal antibodies and rabbit complement. Chinese hamster ovary cells (CHO) and CHO cells transfected with the murine B7 molecule (CHOmB7) were fixed with 1% paraformaldehyde prior to addition to the cultures. Microcultures were set up in duplicate 96-well plates. […] All cultures were incubated for 48 hours and pulsed with 1 μCi ^3 H-thymidine/well for the last 6 hours of the incubation period to assay for T cell proliferation.

C=C1CC(OC)(C(O)C(=O)NC2OCOC3C2OC(CC(O)CO)C(C)(C)C3OC)OC(C)C1C (stereo not drawn) [Mycalamide A, mycalamide A]
viability ([1]; 5.0 × 10^-1 μg/ml): 42% | viability ([1]; 5.0 × 10^-2 μg/ml): 52% | viability ([1]; 5.0 × 10^-3 μg/ml): 46% | viability ([1]; 5.0 × 10^-4 μg/ml): 128% | viability ([1]; 5.0 × 10^-5 μg/ml): 111% | viability ([1]; 5.0 × 10^-6 μg/ml): 114% | viability ([1]; 5.0 × 10^-7 μg/ml): 116% | CC50 ([1]; read-out: TC50 (LCV)): 0.083 mg/L (≈ 0.165 µM) | effect on anti-CD3/mB7 activation of CD4+ cells ([2]; anti-CD3/mB7, in words): blocks activation | times more potent than FK506 ([2]; immunosuppressive activity vs FK506): 10 times | times more potent than cyclosporin A ([2]; immunosuppressive activity vs cyclosporin A): approximately 1000 times | suppressive activity compared with FK506 or CsA ([2]; in words): superior to FK506 or CsA
